Experimental data taken from patent US10030056B2, “Agents for preventing and treating HIV and other viral infections” (priority 2013, dated 2018).
Non-standard residues stand in square brackets, D forms with d. No end group written: not given here.

Experiments:
[1] = system: HIV-1 laboratory strain NL4-3 PI 952; experiment: Infectivity of HIV-1 NL4-3 PI 952 in TZM-bl cells with 6 μg/ml SEVI fibrils, luciferase activity (FIG. 4, Table 1); type: cell-based; details: for luciferase activity of infected cells, mean value: 6 μg/ml SEVI fibrils, 48 hours after infection, HIV + SEVI control 7264.0, HIV + PBS 579.0; for lowering of the increased infectivity of the viruses caused by fibrils associated with SEVI: summary of Table 1 / FIG. 4
Method: The test approach was broken down as follows: The reporter cell line TZM-bl was incubated with the HIV-1 laboratory strain NL4-3 PI 952 in the presence of 6 μg/ml SEVI fibrils (fibril-forming PAP fragments isolated from semen; semen derived enhancer of virus infection). The fibrils were pre-Incubated with or without D3 and D3D3 (0.5 and 5 μg/ml, respectively) prior to infection. The infection efficiency was determined by measuring the luciferase activity (introduced by a luciferase gene coded in the laboratory strain) of the infected cells 48 hours after infection (Table 1: Results of FIG. 4).

[2] = system: HIV-1
Description: So as to analyze the effect of the amyloidogenic inhibitor D3 as a potential therapeutic agent for reducing amyloid peptide-promoted retroviral propagation, adherently growing TZM-bl cells were infected with HIV-1. These cells express the HIV-1 receptors CD4, CXCR4 and CCR5, which is why they are permissive both for T-tropic and M-tropic HIV isolates. […] The TZM-bl indicator cell line thus allows a quantitative analysis of HIV infection efficiency.
D3 was composed of amino acids of the D-enantiomeric form. Forty-eight hours after infection, the TZM-bl cells were washed with PBS, fixed by adding formaldehyde/glutaraldehyde, and subsequently washed again. The β-galactosidase-induced blue coloration of the cells was carried out by incubation overnight with a X-Gal solution. The coloring solution was removed the following day, the fixed cells were washed again with PBS and analyzed for blue coloration by way of optical microscopy. Since these reporter cells also express luciferase, in addition to the β-galactosidase, proportionally with the infection rate, this effect could also be determined quantitatively. […] After adding luciferase substrate solution, the light intensity at the 560 nm wavelength created by the oxidation of luciferin, which, in turn, is catalyzed by the firefly luciferase enzyme, was measured. […]

[3] = system: HIV-1; remark: listed apart in the source
Description: So as to analyze the effect of the amyloidogenic inhibitor D3 as a potential therapeutic agent for reducing amyloid peptide-promoted retroviral propagation, adherently growing TZM-bl cells were infected with HIV-1. […] The TZM-bl indicator cell line thus allows a quantitative analysis of HIV infection efficiency.
D3 was composed of amino acids of the D-enantiomeric form. Forty-eight hours after infection, the TZM-bl cells were washed with PBS, fixed by adding formaldehyde/glutaraldehyde, and subsequently washed again. The β-galactosidase-induced blue coloration of the cells was carried out by incubation overnight with a X-Gal solution. The coloring solution was removed the following day, the fixed cells were washed again with PBS and analyzed for blue coloration by way of optical microscopy. Since these reporter cells also express luciferase, in addition to the β-galactosidase, proportionally with the infection rate, this effect could also be determined quantitatively. For this purpose, the cells were infected in the same manner and, after being washed twice with PBS, were lysed using 1× passive lysis buffer (PLB). After adding luciferase substrate solution, the light intensity at the 560 nm wavelength created by the oxidation of luciferin, which, in turn, is catalyzed by the firefly luciferase enzyme, was measured. […]

[4] = number of cells colored in blue and measured light intensity

Substance | luciferase activity of infected cells, mean value ([1]; 0.5 μg/ml peptide) | luciferase activity of infected cells, mean value ([1]; 5 μg/ml peptide) | lowering of the increased infectivity of the viruses caused by fibrils associated with SEVI [1] | decrease in number of infected cells compared to the untreated cells with SEVI fibrils ([2]; 0.5 μg/ml D3, SEVI fibrils, TZM-bl cells, FIG. 2C) | reduction of infection rate promoted by SEVI [2, 4] | decrease in number of infected cells compared to the untreated cells with amyloid-beta fibrils ([3]; 5 μg/ml D3, Aβ1-42 fibrils 50 μg/ml, TZM-bl cells, FIG. 2D) | reduction of infection rate promoted by Aβ [3, 4]
rprtrlhthrnr ([dR][dP][dR][dT][dR][dL][dH][dT][dH][dR][dN][dR]) [D3] | 7112.7 | 4368.0 | approximately 80% | approximately 60% | considerably reduce | approximately 90% | considerably reduce
rprtrlhthrnrrprtrlhthrnr ([dR][dP][dR][dT][dR][dL][dH][dT][dH][dR][dN][dR][dR][dP][dR][dT][dR][dL][dH][dT][dH][dR][dN][dR]) [D3D3, dimer of two D3 monomer units] | 5529.7 | 1321.0 | approximately 80% | – | – | – | –
